Laboratory results taken from ChEMBL document CHEMBL3045255, “Novel quinolyl-thienyl chalcones and their 2-pyrazoline derivatives with diverse substitution pattern as antileishmanial agents against Leishmania major” (Med Chem Res, 2012).
Values after ≈ are worked out from the molar mass of the structure shown.

Test system: Leishmania major
Experiment: Antileishmanial activity against promastigotes form of Leishmania major after 72 hr by cell counting using neubaur chamber
Assay type: functional, organism-based

`Cc1ccsc1C1=NNC(c2cc3cccc(C)c3nc2Cl)C1` (centres undefined) and `Cc1cccc2cc(C3CC(c4sccc4Cl)=NN3)c(Cl)nc12` (centres undefined) are within 1.5-fold of each other in IC50: 0.78 mg/L (≈ 2.28 µM) for the first, 0.84 mg/L (≈ 2.32 µM) for the second.

Compared with `Cc1ccc2cc(/C=C/C(=O)c3sccc3C)c(Cl)nc2c1`, `Cc1ccc2cc(/C=C/C(=O)c3sccc3Cl)c(Cl)nc2c1` is 1.6-fold lower in IC50: 0.92 mg/L (≈ 2.81 µM) for the first, 0.59 mg/L (≈ 1.69 µM) for the second.

`Cc1ccc2cc(C3CC(c4cc(Cl)sc4Cl)=NN3)c(Cl)nc2c1` (centres undefined) and `Cc1cccc2cc(C3CC(c4cc(Cl)sc4Cl)=NN3)c(Cl)nc12` (centres undefined) are within 1.5-fold of each other in IC50: 0.71 mg/L (≈ 1.79 µM) for the first, 0.79 mg/L (≈ 1.99 µM) for the second.

`Cc1cccc2cc(/C=C/C(=O)c3ccsc3)c(Cl)nc12` and `Cc1cccc2cc(/C=C/C(=O)c3sccc3Cl)c(Cl)nc12` are within 1.5-fold of each other in IC50: 0.61 mg/L (≈ 1.94 µM) for the first, 0.78 mg/L (≈ 2.24 µM) for the second.

`Cc1cccc2cc(C3CC(c4ccc(Cl)s4)=NN3)c(Cl)nc12` (centres undefined) and `Cc1cccc2cc(C3CC(c4ccc(Br)s4)=NN3)c(Cl)nc12` (centres undefined) are within 1.5-fold of each other in IC50: 0.75 mg/L (≈ 2.07 µM) for the first, 0.93 mg/L (≈ 2.29 µM) for the second.

`Cc1ccc2cc(C3CC(c4sccc4Cl)=NN3)c(Cl)nc2c1` (centres undefined) and `Cc1ccc2cc(C3CC(c4sccc4C)=NN3)c(Cl)nc2c1` (centres undefined) are within 1.5-fold of each other in IC50: 0.78 mg/L (≈ 2.15 µM) for the first, 0.76 mg/L (≈ 2.22 µM) for the second.

`Cc1cc(C(=O)/C=C/c2cc3cccc(C)c3nc2Cl)c(C)s1` and `Cc1ccc2cc(/C=C/C(=O)c3cc(C)sc3C)c(Cl)nc2c1` are within 1.5-fold of each other in IC50: 0.73 mg/L (≈ 2.14 µM) for the first, 0.62 mg/L (≈ 1.81 µM) for the second.

`Cc1ccc2cc(/C=C/C(=O)c3ccsc3)c(Cl)nc2c1` and `Cc1ccc2cc(/C=C/C(=O)c3sccc3Br)c(Cl)nc2c1` are within 1.5-fold of each other in IC50: 0.88 mg/L (≈ 2.8 µM) for the first, 0.71 mg/L (≈ 1.81 µM) for the second.

`Cc1ccc2cc(/C=C/C(=O)c3cc(Cl)sc3Cl)c(Cl)nc2c1` and `Cc1cccc2cc(/C=C/C(=O)c3cc(Cl)sc3Cl)c(Cl)nc12` are within 1.5-fold of each other in IC50: 0.78 mg/L (≈ 2.04 µM) for the first, 0.85 mg/L (≈ 2.22 µM) for the second.

`Cc1ccc2cc(C3CC(c4ccc(Cl)s4)=NN3)c(Cl)nc2c1` (centres undefined) and `Cc1ccc2cc(C3CC(c4ccc(C)s4)=NN3)c(Cl)nc2c1` (centres undefined) are within 1.5-fold of each other in IC50: 0.83 mg/L (≈ 2.29 µM) for the first, 0.89 mg/L (≈ 2.6 µM) for the second.

`Cc1csc(C(=O)/C=C/c2cc3cccc(C)c3nc2Cl)c1` and `Cc1ccc(C(=O)/C=C/c2cc3cccc(C)c3nc2Cl)s1` are within 1.5-fold of each other in IC50: 0.59 mg/L (≈ 1.8 µM) for the first, 0.61 mg/L (≈ 1.86 µM) for the second.

`Cc1ccc2cc(/C=C/C(=O)c3ccc(Br)s3)c(Cl)nc2c1` and `Cc1ccc2cc(/C=C/C(=O)c3ccc(Cl)s3)c(Cl)nc2c1` are within 1.5-fold of each other in IC50: 0.91 mg/L (≈ 2.32 µM) for the first, 0.81 mg/L (≈ 2.33 µM) for the second.

`Cc1csc(C2=NNC(c3cc4ccc(C)cc4nc3Cl)C2)c1` (centres undefined) and `Cc1csc(C2=NNC(c3cc4cccc(C)c4nc3Cl)C2)c1` (centres undefined) are within 1.5-fold of each other in IC50: 0.87 mg/L (≈ 2.54 µM) for the first, 0.74 mg/L (≈ 2.16 µM) for the second.

`Cc1ccc2cc(C3CC(c4sccc4Br)=NN3)c(Cl)nc2c1` (centres undefined) and `Cc1cccc2cc(C3CC(c4sccc4Br)=NN3)c(Cl)nc12` (centres undefined) are within 1.5-fold of each other in IC50: 0.85 mg/L (≈ 2.09 µM) for the first, 0.94 mg/L (≈ 2.31 µM) for the second.

`Cc1csc(C(=O)/C=C/c2cc3ccc(C)cc3nc2Cl)c1` and `Cc1ccc2cc(/C=C/C(=O)c3ccc(C)s3)c(Cl)nc2c1` are within 1.5-fold of each other in IC50: 0.83 mg/L (≈ 2.53 µM) for the first, 0.74 mg/L (≈ 2.26 µM) for the second.

`Cc1cc(C2=NNC(c3cc4cccc(C)c4nc3Cl)C2)c(C)s1` (centres undefined) and `Cc1ccc2cc(C3CC(c4cc(C)sc4C)=NN3)c(Cl)nc2c1` (centres undefined) are within 1.5-fold of each other in IC50: 0.93 mg/L (≈ 2.61 µM) for the first, 0.76 mg/L (≈ 2.14 µM) for the second.

`Cc1ccc(C2=NNC(c3cc4cccc(C)c4nc3Cl)C2)s1` (centres undefined) and `Cc1cccc2cc(C3CC(c4ccc(I)s4)=NN3)c(Cl)nc12` (centres undefined) are within 1.5-fold of each other in IC50: 0.89 mg/L (≈ 2.6 µM) for the first, 0.77 mg/L (≈ 1.7 µM) for the second.

`Cc1cccc2cc(C3CC(c4ccsc4)=NN3)c(Cl)nc12` (centres undefined) and `Cc1ccc2cc(C3CC(c4ccsc4)=NN3)c(Cl)nc2c1` (centres undefined) are within 1.5-fold of each other in IC50: 0.67 mg/L (≈ 2.04 µM) for the first, 0.94 mg/L (≈ 2.87 µM) for the second.

`Cc1ccsc1C(=O)/C=C/c1cc2cccc(C)c2nc1Cl` and `Cc1cccc2cc(/C=C/C(=O)c3sccc3Br)c(Cl)nc12` are within 1.5-fold of each other in IC50: 0.94 mg/L (≈ 2.87 µM) for the first, 0.93 mg/L (≈ 2.37 µM) for the second.

`Cc1ccc2cc(C3CC(c4ccc(Br)s4)=NN3)c(Cl)nc2c1` (centres undefined) and `Cc1ccc2cc(C3CC(c4ccc(I)s4)=NN3)c(Cl)nc2c1` (centres undefined) are within 1.5-fold of each other in IC50: 0.93 mg/L (≈ 2.29 µM) for the first, 0.88 mg/L (≈ 1.94 µM) for the second.

`Cc1ccc2cc(/C=C/C(=O)c3ccc(I)s3)c(Cl)nc2c1` and `Cc1cccc2cc(/C=C/C(=O)c3ccc(I)s3)c(Cl)nc12` are within 1.5-fold of each other in IC50: 0.84 mg/L (≈ 1.91 µM) for the first, 0.67 mg/L (≈ 1.52 µM) for the second.

`Cc1cccc2cc(/C=C/C(=O)c3ccc(Cl)s3)c(Cl)nc12` and `Cc1cccc2cc(/C=C/C(=O)c3ccc(Br)s3)c(Cl)nc12` are within 1.5-fold of each other in IC50: 0.65 mg/L (≈ 1.87 µM) for the first, 0.78 mg/L (≈ 1.99 µM) for the second.
